Experiment [1] deals with T1, Rap guanine nucleotide exchange factor 3 (Homo sapiens, UniProt O95398).
T1 sequence (O95398 whole entry): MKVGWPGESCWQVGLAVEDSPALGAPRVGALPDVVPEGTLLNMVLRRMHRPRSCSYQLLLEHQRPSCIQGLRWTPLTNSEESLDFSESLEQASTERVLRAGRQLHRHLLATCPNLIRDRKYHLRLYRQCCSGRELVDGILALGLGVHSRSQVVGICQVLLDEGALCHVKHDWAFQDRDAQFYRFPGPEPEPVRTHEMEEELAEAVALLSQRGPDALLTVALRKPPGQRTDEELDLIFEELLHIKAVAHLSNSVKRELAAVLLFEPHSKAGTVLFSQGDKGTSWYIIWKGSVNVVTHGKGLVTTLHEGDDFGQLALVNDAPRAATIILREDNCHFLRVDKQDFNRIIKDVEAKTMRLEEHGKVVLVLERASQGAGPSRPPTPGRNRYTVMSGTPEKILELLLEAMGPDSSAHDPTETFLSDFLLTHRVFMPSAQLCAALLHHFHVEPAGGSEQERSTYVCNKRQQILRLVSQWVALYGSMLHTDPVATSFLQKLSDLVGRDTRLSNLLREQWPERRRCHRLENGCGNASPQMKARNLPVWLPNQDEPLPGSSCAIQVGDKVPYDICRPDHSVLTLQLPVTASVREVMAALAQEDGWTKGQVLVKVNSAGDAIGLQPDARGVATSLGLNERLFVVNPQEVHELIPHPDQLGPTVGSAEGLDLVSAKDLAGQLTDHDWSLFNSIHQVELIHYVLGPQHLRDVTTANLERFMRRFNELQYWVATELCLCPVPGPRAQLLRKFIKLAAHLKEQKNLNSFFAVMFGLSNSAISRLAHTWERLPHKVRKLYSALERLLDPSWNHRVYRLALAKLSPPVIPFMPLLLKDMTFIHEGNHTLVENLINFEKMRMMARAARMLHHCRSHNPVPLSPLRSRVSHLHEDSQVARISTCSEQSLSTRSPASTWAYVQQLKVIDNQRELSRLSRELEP
Kind of experiment: Antagonist activity at recombinant human full length EPAC1 assessed as inhibition of EPAC1-mediated Rap1B (1 to 167 residues)-BODIPY GDP nucleotide exchange activity in presence of 20 uM cAMP.

For experiment [2], the target named is T2, Rap guanine nucleotide exchange factor 4 (Mus musculus, UniProt Q9EQZ6).
T2 sequence (Q9EQZ6 whole entry): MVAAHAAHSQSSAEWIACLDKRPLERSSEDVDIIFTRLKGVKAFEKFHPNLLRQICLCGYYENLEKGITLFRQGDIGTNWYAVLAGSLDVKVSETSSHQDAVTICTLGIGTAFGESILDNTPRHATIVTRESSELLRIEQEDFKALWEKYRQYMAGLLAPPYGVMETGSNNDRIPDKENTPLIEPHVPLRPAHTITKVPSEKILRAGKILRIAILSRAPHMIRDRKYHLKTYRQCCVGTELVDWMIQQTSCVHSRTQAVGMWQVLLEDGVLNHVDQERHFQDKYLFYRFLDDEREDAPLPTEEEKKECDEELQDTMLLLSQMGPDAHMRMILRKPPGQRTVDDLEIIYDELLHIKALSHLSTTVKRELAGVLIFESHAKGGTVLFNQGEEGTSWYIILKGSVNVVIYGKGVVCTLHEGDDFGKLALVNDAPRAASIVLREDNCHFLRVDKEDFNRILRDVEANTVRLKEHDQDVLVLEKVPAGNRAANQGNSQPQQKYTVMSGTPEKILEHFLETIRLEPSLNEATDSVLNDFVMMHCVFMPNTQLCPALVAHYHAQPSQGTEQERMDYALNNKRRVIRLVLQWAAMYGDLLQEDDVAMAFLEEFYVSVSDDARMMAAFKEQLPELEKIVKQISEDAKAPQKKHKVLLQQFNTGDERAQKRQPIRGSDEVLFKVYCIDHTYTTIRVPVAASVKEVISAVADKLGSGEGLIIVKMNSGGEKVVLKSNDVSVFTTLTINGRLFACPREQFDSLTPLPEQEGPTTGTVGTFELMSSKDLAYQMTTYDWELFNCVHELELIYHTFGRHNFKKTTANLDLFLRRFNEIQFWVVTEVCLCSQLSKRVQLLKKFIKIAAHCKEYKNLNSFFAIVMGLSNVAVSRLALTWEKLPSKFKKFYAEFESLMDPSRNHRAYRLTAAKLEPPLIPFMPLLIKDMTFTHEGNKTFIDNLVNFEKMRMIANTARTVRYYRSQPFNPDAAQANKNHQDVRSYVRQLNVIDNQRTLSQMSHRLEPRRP
Kind of experiment: Antagonist activity at mouse EPAC2 assessed as inhibition of EPAC2-mediated Rap1B (1 to 167 residues)-BODIPY GDP nucleotide exchange activity.

Experiment [3] can be described thus: Ratio of IC50 for recombinant human full length EPAC1 to IC50 for mouse EPAC2.

In the case of `CC(C)(C)c1ccc(-c2cc(C(=O)/C(C#N)=N/Nc3cccc(Cl)c3)no2)cc1`, the IC50 (as a rule, the concentration at which inhibition is half-maximal) in experiment [1] was 8.6 µM. Take `N#C/C(=N\Nc1ccc(Cl)c(C(F)(F)F)c1)C(=O)c1cc(-c2ccco2)on1`: the IC50 amounted to 2.3 µM in experiment [2] and 4.2 µM in experiment [1].

Regarding `N#C/C(=N\Nc1cc(Cl)cc(C(F)(F)F)c1)C(=O)c1cc(-c2ccccc2)on1`, in experiment [1], the IC50 amounted to 9.5 µM.

Take `CC(C)(C)c1ccc(-c2cc(C(=O)/C(C#N)=N/Nc3ccc(C(F)(F)F)c(Cl)c3)no2)cc1`: the IC50 in experiment [1] was 9 µM. As for `CC(C)(C)c1ccc(-c2cc(C(=O)/C(C#N)=N/Nc3ccc(Cl)c(C(F)(F)F)c3)no2)cc1`, the half-maximal inhibitory concentration (IC50) came to 2.2 µM in experiment [2] and 7.3 µM in experiment [1]. In the case of `CC(C)(C)c1cc(C(=O)/C(C#N)=N/Nc2cc(Cl)c(Cl)c(Cl)c2)no1`, in experiment [1], the IC50 turned out to be 2.7 µM. With `N#C/C(=N\Nc1cc(Cl)cc(C(F)(F)F)c1)C(=O)c1cc(-c2ccco2)on1`, the IC50 in experiment [2] stood at 2.2 µM; in experiment [1] it was 3.6 µM.

Take `COc1ccc(-c2cc(C(=O)/C(C#N)=N/Nc3cccc(Cl)c3)no2)cc1`: the IC50 in experiment [1] was determined as 11.4 µM. In the case of `N#C/C(=N\Nc1cc(F)cc(Cl)c1)C(=O)c1noc2ccccc12`, the IC50 in experiment [1] is 18.9 µM. As to `CC(C)(C)c1cc(C(=O)/C(C#N)=N/Nc2cccc(Cl)c2)no1`, in experiment [2], the IC50 was found to be 4.4 µM. In addition, the Ratio IC50 in experiment [3] came to 2.5.

As to `N#C/C(=N\Nc1ccc(Cl)c(C(F)(F)F)c1)C(=O)c1cc(-c2ccc(Cl)cc2)on1`, the IC50 in experiment [1] worked out at 7.8 µM.

`N#C/C(=N\Nc1ccc(Cl)c(C(F)(F)F)c1)C(=O)c1noc2ccccc12`: the results for the IC50 in experiment [2] and in experiment [1] were 1.9 µM and 2.7 µM, respectively.

`N#C/C(=N\Nc1ccc(F)c(Cl)c1)C(=O)c1noc2ccccc12`: the IC50 in experiment [1] was 8.5 µM. In the case of `COc1ccc(-c2cc(C(=O)/C(C#N)=N/Nc3cc(C(F)(F)F)cc(C(F)(F)F)c3)no2)cc1`, the 50% inhibitory concentration (IC50) in experiment [2] was determined as 7 µM; in experiment [1] it was 5.6 µM.

Regarding `N#C/C(=N\Nc1cc(Cl)cc(C(F)(F)F)c1)C(=O)c1noc2ccccc12`, the IC50 in experiment [2] was determined as 2.2 µM; in experiment [1] it was 4.6 µM. For the compound `N#C/C(=N\Nc1cccc(Cl)c1)C(=O)c1noc2ccccc12`, in experiment [1], the IC50 is 13.2 µM. `N#C/C(=N\Nc1ccc(C(F)(F)F)c(Cl)c1)C(=O)c1noc2ccccc12`: the results for the IC50 in experiment [2] and in experiment [1] were 2.2 µM and 3 µM, respectively.

For `N#C/C(=N\Nc1ccc(Cl)c(C(F)(F)F)c1)C(=O)c1cc(-c2ccccc2)on1`, the IC50 in experiment [2] was 2.3 µM. As to `N#C/C(=N\Nc1cc(C(F)(F)F)cc(C(F)(F)F)c1)C(=O)c1cc(-c2ccccc2)on1`, the IC50 in experiment [2] worked out at 3.3 µM; in experiment [1], 7.2 µM. As to `CC(C)(C)c1ccc(-c2cc(C(=O)/C(C#N)=N/Nc3cc(C(F)(F)F)cc(C(F)(F)F)c3)no2)cc1`, the IC50 in experiment [1] turned out to be 11.9 µM.

Consider `N#C/C(=N\Nc1cccc(Cl)c1)C(=O)c1cc(-c2ccco2)on1`, for which the IC50 in experiment [1] stood at 9.9 µM. For the compound `N#C/C(=N\Nc1cccc(Cl)c1)C(=O)c1cc(-c2ccccc2)on1`, the IC50 in experiment [1] is greater than 150 µM.

For the compound `N#C/C(=N\Nc1cc(C(F)(F)F)cc(C(F)(F)F)c1)C(=O)c1noc2ccccc12`, in experiment [1], the IC50 stood at 6.7 µM.

As to `COc1ccc(-c2cc(C(=O)/C(C#N)=N/Nc3ccc(Cl)c(C(F)(F)F)c3)no2)cc1`, in experiment [2], the IC50 was determined as 4.5 µM.
